Experimental data reported in paper PMC12214536 (Nature Communications, 2025).

Test system: A. fumigatus OE::sltA
Type: cell-based, Aspergillus fumigatus

caspofungin
susceptibility of the sltA overexpression strain compared to wild-type: comparable susceptibility to CAS

colistin
more tolerance of the sltA overexpression strain compared to wild-type: 15%
